Results on two molecules are retold here after patent publication US3988476A, “Pharmaceutical compositions and methods of treating allergic conditions utilizing 2-nitroindane-1,3-dione derivatives as the active agent” (Beecham Group Limited, priority 1972, dated 1976).

For the experiment, the system named is PCA response. Briefly: Rat Passive Cutaneous Anaphylaxis (PCA) test, ovalbumin challenge. Format: in vivo, Wistar rats. Conditions: suspension of Na salt in 1% methyl cellulose. The protocol:
All of the 2-nitro indane-1,3-dione prepared in the preceding Examples were submitted for biological testing. The test system was the Rat Passive Cutaneous Anaphylaxis (PCA) test described below in (ii).
Male Wister rats of 250- 300 g, were injected intraperitoneally with 0.5 ml of Bordatella pertussis vaccine (containing 4× 10^10 dead organism per ml) and subcutaneously with 0.5 ml of an emulsion of 100 mg. of ovalbumin in 2 ml of saline and 3 ml of incomplete Freunds' adjuvant. Rats were bled by cardiac puncture on day 18, the blood was pooled and separated and serum stored at -20° and thawed only once before use.
0.1 ml of each of six twofold serial dilutions of the serum in 0.9% saline were injected intradermally into separate sites on the shaved dorsal surface of 250-350 g. Wistar rats. 72 hours later the animals were challenged by i.v. injection of 0.3 ml of 1% ovalbumin mixed with 0.1 ml of a 5% solution of pontamine sky blue dye both in isotonic saline buffered with pH. 7.2 Sorenson buffer (P.B.S.). The rats were killed after 20 minutes and the diameter of the blue wheals at the antibody injection sites were measured. The starting dilution of the serum was adjusted so that there was no response, after challenge, at the site of injection of the highest dilution and a maximum response at the lowest dilution.
Amounts of the compounds were administered to rats each amount to a test group of six animals at a specified time prior to intravenous challenge with ovalbumin.
For those compounds having insoluble sodium salts, the salts were isolated by reaction of the free nitro compound with 2.5N sodium hydroxide and the filtered sodium washed free of alkali with water. The dried salts were then administered as a suspension in 1% methyl cellulose.

Where [1] appears, read: 25 mg/kg, 0 min between dosing and challenge.
Where [2] appears, read: 25 mg/kg, 60 min between dosing and challenge.
The mark [3] stands for this setting: 100 mg/kg, 0 min between dosing and challenge.
The mark [4] stands for this setting: 100 mg/kg, 60 min between dosing and challenge.

On to `COc1cccc2c1C(=O)C([N+](=O)[O-])C2=O` (centres unmarked) [4-methoxy-2-nitroindane-1,3-dione, 4-Methoxy-2-nitro indane-1,3-dione], for which the “% INHIBITION OF PCA RESPONSE” value reads like this: under setting [1], -2%; under setting [2], 25%; under setting [3], 18%; under setting [4], 36%.

`Cc1cc2c(cc1C)C(=O)C([N+](=O)[O-])C2=O` [5,6-dimethyl-2-nitroindane-1,3-dione, 5,6-Dimethyl-2-nitro-indane-1,3-dione]: the “% INHIBITION OF PCA RESPONSE” value under setting [1] was 92%, the “% INHIBITION OF PCA RESPONSE” value under setting [2] turned out to be 48%, the “% INHIBITION OF PCA RESPONSE” value under setting [3] was 73% and the “% INHIBITION OF PCA RESPONSE” value under setting [4] came out at 54%.
